According to patent US8426369B2, “Prevention and treatment of colon cancer” (Rutgers, The State University of New Jersey, priority 2006, dated 2013):

What was measured:
HT-29 cells = test: [3H]Thymidine incorporation cell proliferation assay in HT-29 cells; assay type: cell-based, human; details: 30 μM, three days
Description: The stilbenes illustrated in FIG. 4 were also used to investigate their ability to inhibit cell proliferation in HT-29 cell line. In this experiment, HT-29 cells (20,000 cells/well in 24-well plate) were treated with the respective stilbenes (each used either at 30 μM or 3 μM) in 10% FBS/DMEM for three days.
(§1) Human colon carcinoma cell lines HT-29 was obtained from the American Type Culture Collection (Manassas, Va.). The cells were maintained in Dulbecco's modification of Eagle's medium (DMEM) supplemented with 10% FBS and 1% penicillin/streptomycin at 37° C. and 5% CO2. The cytokine mixture, consisting of 10 ng/ml of TNF-α, IFN-γ and LPS, was used to induce iNOS and COX-2, unless otherwise mentioned. The cells were treated with the test compound either alone or in combination with cytokines for different time intervals and harvested for protein or RNA.
HT-29 cells were plated at a density of 20,000 cells/well in a 24 well plate and treated with varying concentrations of pterostilbene for a period of 1, 2 or 3 days at 37° C. Before harvest, the cells were incubated with 1 μCi [^3H]thymidine for 4 h at 37° C. and were washed with phosphate buffered saline. The cells were precipitated with cold 10% trichloroacetic acid for 10 min and solubilized with 0.5 ml solubilization buffer (0.2 M NaOH, 40 μg/ml salmon sperm DNA) for 2 h at room temperature. The lysate was transferred to 5 ml Ecolume and the [3H]thymidine incorporated into the DNA of HT-29 cells was determined using a scintillation spectrometer (Beckman Coulter, Fullerton, Calif.).

iNOS = test: Cytokine-induced iNOS protein expression in HT-29 cells (Western blot); assay type: cell-based, human; details: stilbene analogs each at 10 μM, 15 hours, HT-29, Western blot
Description: HT-29 human colon adenocarcinoma cells were grown in 10% FBC/DMEM. Cells (about 600,000 cells/well) were plated in 6-well plate and treated with stilbene analogs shown in FIG. 4 (each at 10 μM) for 15 hours together with cytokine mixture comprising TNF-a, IFN0g, and LPS (each at 10 ng/ml). Cell lysates were prepared and subjected to Western Blot analysis.
as §1
The cell culture conditions and the reagents used in this example were described in Example 32. Whole cell extracts were collected after the various treatments and analyzed by western blotting. The protein samples were separated on 4-15% SDS-PAGE gels (Biorad, Hercules, Calif.) followed by transfer to a polyvinylidene fluoride membrane. The membranes were blocked with 5% milk in Tris buffer for 1 h and then incubated with the appropriate primary antibody solutions overnight at 4° C. The membranes were washed with Tris buffer, and incubated with horseradish peroxidase conjugated secondary antibody solutions for 1 h at room temperature.
The protein bands were visualized using a chemiluminescence based kit from Amersham Biosciences (Buckinghamshire, UK). The primary antibodies against iNOS, COX-2, IκBα, cyclin D1, c-myc (Santa Cruz Bio-technology, Santa Cruz, Calif.), phospho-STAT3, phospho-Erk1/2, phospho-JNK1/2, phospho-p38, phospho-Akt, phospho-ATF2, phospho-Elk1, PARP (Cell Signaling Technology Inc., Beverly, Mass.) and actin (Sigma, St. Louis, Mo.) and secondary antibodies (Santa Cruz Biotechnology, Santa Cruz, Calif.) were used for probing the abundance of the target protein in the samples.

[1] = tested on: AOM-induced rat colon carcinogenesis; details: 100 ppm; cited from earlier work
AOM-induced colonic ACF = details: F344 rats; L-N6-(1-iminoethyl)lysine tetrazoleamide at 100 ppm; cited from earlier work
[2] = tested on: colorectal aberrant crypt foci (ACF); details: rats; cited from earlier work

Molecule | proliferation of HT-29 cells (HT-29 cells) | AOM-induced colonic ACF (AOM-induced colonic ACF) | also measured
COc1ccc(/C=C/c2cc(OC)cc(OC)c2)cc1 [ARS-8, (E)-1,3-dimethoxy-5-(4-methoxystyryl)benzene] | inhibited proliferation | – | –
COc1ccc(/C=C\c2cc(OC)cc(OC)c2)cc1 [ARS-9, (Z)-1,3-dimethoxy-5-(4-methoxystyryl)benzene] | inhibited proliferation | – | induction of iNOS protein expression by cytokine mixture (iNOS): inhibited
C[C@H]1CC(=N)N[C@@H]2[C@H](Cl)[C@@H]21.Cl [ONO-1714, [1S,5S,6R,7R]-7-chloro-3-imino-5-methyl-2 azabicyclo[4.1.0]heptane hydrochloride] | – | – | AOM-induced rat colon carcinogenesis [1]: inhibitory effect
N=C(N)SCCc1ccc(CCSC(=N)N)cc1 [PBIT, S,S′-1,4-phenylene-bis(1,2-ethanediyl)bis-isothiourea] | – | inhibitory effects | –
Oc1ccc(C=Cc2cc(O)cc(O)c2)cc1 [Resveratrol] | – | – | growth of colorectal aberrant crypt foci (ACF) [2]: reduce the growth
L-N^6-(1-iminoethyl)lysine tetrazoleamide | – | significantly suppress | –
